Source: PubChem BioAssay AID2060621 (Molecular Pharmacology Branch, DTP, NCI, 2025)

System: 324938-238-R-J1-PDC complex spheroids viability
Assay: Anticancer human tumor 324938-238-R-J1-PDC patient-derived bladder carcinoma cell line growth inhibition [CLK]
Conditions: for IC50: curve of first compound; for viability, T/C: stronger effect = lower value; active = viability on the fitted dose curve at most 10% of control; inactive = the rest
Outline: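 Multi-cell-type spheroids combined patient-derived tumor cells with HUVEC endothelial cells and human mesenchymal stem cells. Paired agents were dosed in half-log steps down from about clinical Cmax, or from 10 microM where Cmax was unknown.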

[1] = second compound 0.0316 µM, first compound 0.0316 µM
[2] = second compound 0.0316 µM, first compound 0.1 µM
[3] = second compound 0.0316 µM, first compound 0.316 µM
[4] = second compound 0.0316 µM, first compound 1 µM
[5] = second compound 0.1 µM, first compound 0.0316 µM
[6] = second compound 0.1 µM, first compound 0.1 µM
[7] = second compound 0.1 µM, first compound 0.316 µM
[8] = second compound 0.1 µM, first compound 1 µM
[9] = second compound 0.316 µM, first compound 0.0316 µM
[10] = second compound 0.316 µM, first compound 0.1 µM
[11] = second compound 0.316 µM, first compound 0.316 µM
[12] = second compound 0.316 µM, first compound 1 µM
[13] = second compound 1 µM, first compound 0.0316 µM
[14] = second compound 1 µM, first compound 0.1 µM
[15] = second compound 1 µM, first compound 0.316 µM
[16] = second compound 1 µM, first compound 1 µM
[17] = second compound 3.16 µM, first compound 0.0316 µM
[18] = second compound 3.16 µM, first compound 0.1 µM
[19] = second compound 3.16 µM, first compound 0.316 µM
[20] = second compound 3.16 µM, first compound 1 µM
[21] = second compound 10 µM, first compound 0.0316 µM
[22] = second compound 10 µM, first compound 0.1 µM
[23] = second compound 10 µM, first compound 0.316 µM
[24] = second compound 10 µM, first compound 1 µM
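Note: viability read after seven days of drug exposure.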
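Throughout, for viability, T/C: 100% = DMSO vehicle control wells.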

CC(Nc1ccc2c(c1)OCCn1cc(N3C(=O)OCC3C(F)F)nc1-2)C(N)=O (centres undefined) + CN1CCN(c2cc(C(=O)Nc3cc4cc(-c5cnn(C)c5)ccc4cn3)ccn2)CC1
167 nM: IC50 (second compound 0.0316 µM)
active: viability, T/C (second compound 0.316 µM, first compound 10 µM) 9.85% | viability, T/C [13] 1.49% | viability, T/C [14] 2.08% | viability, T/C [15] 1.71% | viability, T/C [16] 0.86% | viability, T/C (second compound 1 µM, first compound 3.16 µM) 0.52% | viability, T/C (second compound 1 µM, first compound 10 µM) 0.51% | viability, T/C [17] 0.1% | viability, T/C [18] 0.15% | viability, T/C [19] 0.14% | viability, T/C [20] 0.1% | viability, T/C (second compound 3.16 µM, first compound 3.16 µM) 0.16% | viability, T/C (second compound 3.16 µM, first compound 10 µM) 0.18% | viability, T/C [21] 0.07% | viability, T/C [22] 0.14% | viability, T/C [23] 0.19% | viability, T/C [24] 0.12% | viability, T/C (second compound 10 µM, first compound 3.16 µM) 0.17% | viability, T/C (second compound 10 µM, first compound 10 µM) 0.2%
inactive: viability, T/C [1] 65.8% | viability, T/C [2] 58.5% | viability, T/C [3] 40% | viability, T/C [4] 29.9% | viability, T/C (second compound 0.0316 µM, first compound 3.16 µM) 24.4% | viability, T/C (second compound 0.0316 µM, first compound 10 µM) 15.8% | viability, T/C [5] 48.2% | viability, T/C [6] 40% | viability, T/C [7] 29.6% | viability, T/C [8] 26.5% | viability, T/C (second compound 0.1 µM, first compound 3.16 µM) 23.3% | viability, T/C (second compound 0.1 µM, first compound 10 µM) 15.5% | viability, T/C [9] 21.3% | viability, T/C [10] 20.8% | viability, T/C [11] 15.2% | viability, T/C [12] 14.1% | viability, T/C (second compound 0.316 µM, first compound 3.16 µM) 11.8%
< 31.6 nM: IC50 (second compound 0.1 µM) | IC50 (second compound 0.316 µM) | IC50 (second compound 1 µM) | IC50 (second compound 3.16 µM) | IC50 (second compound 10 µM)

CCN1CCN(Cc2ccc(Nc3ncc(F)c(-c4cc(F)c5nc(C)n(C(C)C)c5c4)n3)nc2)CC1 + CN1CCN(c2cc(C(=O)Nc3cc4cc(-c5cnn(C)c5)ccc4cn3)ccn2)CC1
active: viability, T/C (second compound 1 µM, first compound 0.00316 µM) 1.45% | viability, T/C (second compound 1 µM, first compound 0.01 µM) 1.54% | viability, T/C [13] 1.57% | viability, T/C [14] 2.36% | viability, T/C [15] 1.73% | viability, T/C [16] 0.69% | viability, T/C (second compound 3.16 µM, first compound 0.00316 µM) 0.12% | viability, T/C (second compound 3.16 µM, first compound 0.01 µM) 0.84% | viability, T/C [17] 0.19% | viability, T/C [18] 0.14% | viability, T/C [19] 0.32% | viability, T/C [20] 0.84% | viability, T/C (second compound 10 µM, first compound 0.00316 µM) 0.09% | viability, T/C (second compound 10 µM, first compound 0.01 µM) 0.19% | viability, T/C [21] 0.2% | viability, T/C [22] 0.11% | viability, T/C [23] 0.15% | viability, T/C [24] 0.2%
5.84 nM: IC50 (second compound 0.1 µM)
< 3.16 nM: IC50 (second compound 0.316 µM) | IC50 (second compound 1 µM) | IC50 (second compound 3.16 µM) | IC50 (second compound 10 µM)
inactive: viability, T/C (second compound 0.0316 µM, first compound 0.00316 µM) 65% | viability, T/C (second compound 0.0316 µM, first compound 0.01 µM) 72.9% | viability, T/C [1] 56.3% | viability, T/C [2] 46.5% | viability, T/C [3] 34.2% | viability, T/C [4] 35.5% | viability, T/C (second compound 0.1 µM, first compound 0.00316 µM) 53% | viability, T/C (second compound 0.1 µM, first compound 0.01 µM) 47.2% | viability, T/C [5] 42.1% | viability, T/C [6] 42.3% | viability, T/C [7] 34.2% | viability, T/C [8] 31.3% | viability, T/C (second compound 0.316 µM, first compound 0.00316 µM) 23.8% | viability, T/C (second compound 0.316 µM, first compound 0.01 µM) 24.7% | viability, T/C [9] 25% | viability, T/C [10] 25.1% | viability, T/C [11] 28.2% | viability, T/C [12] 31.1%
64.8 nM: IC50 (second compound 0.0316 µM)
